Entries after “also recorded” stand apart in the source; their conditions may differ.

Broadly, the bioavailability is dose-corrected exposure relative to a reference, in per cent. Read a high bioavailability as much systemic uptake.

For series [1], the system named is thymus involution. The series can be described thus: Rat model of thymus involution. Type of series: in vivo. Particulars: 3 daily IT doses of 100 μg.
A short description of series [2]: Lung absorption (mean absorption time) in man. It is filed as in vivo. Particulars: average; for time taken for 90% of lung dose to be absorbed: mathematical deconvolution of plasma concentration time data.
The nature of series [3]: Pharmacokinetics after intra-tracheal dry powder dosing in the pig. Type of series: in vivo. Particulars: for time after dosing up to which quantifiable in plasma: anaesthetised pigs, 1 mg intra-tracheal, LLOQ 10 pg/mL compound (I), 20 pg/mL fluticasone propionate. The protocol: Serial blood samples were taken for up to 8 h following dosing.
The target of series [4] is T1, glucocorticoid receptor (Homo sapiens, UniProt P04150).
T1 sequence (P04150 1-777): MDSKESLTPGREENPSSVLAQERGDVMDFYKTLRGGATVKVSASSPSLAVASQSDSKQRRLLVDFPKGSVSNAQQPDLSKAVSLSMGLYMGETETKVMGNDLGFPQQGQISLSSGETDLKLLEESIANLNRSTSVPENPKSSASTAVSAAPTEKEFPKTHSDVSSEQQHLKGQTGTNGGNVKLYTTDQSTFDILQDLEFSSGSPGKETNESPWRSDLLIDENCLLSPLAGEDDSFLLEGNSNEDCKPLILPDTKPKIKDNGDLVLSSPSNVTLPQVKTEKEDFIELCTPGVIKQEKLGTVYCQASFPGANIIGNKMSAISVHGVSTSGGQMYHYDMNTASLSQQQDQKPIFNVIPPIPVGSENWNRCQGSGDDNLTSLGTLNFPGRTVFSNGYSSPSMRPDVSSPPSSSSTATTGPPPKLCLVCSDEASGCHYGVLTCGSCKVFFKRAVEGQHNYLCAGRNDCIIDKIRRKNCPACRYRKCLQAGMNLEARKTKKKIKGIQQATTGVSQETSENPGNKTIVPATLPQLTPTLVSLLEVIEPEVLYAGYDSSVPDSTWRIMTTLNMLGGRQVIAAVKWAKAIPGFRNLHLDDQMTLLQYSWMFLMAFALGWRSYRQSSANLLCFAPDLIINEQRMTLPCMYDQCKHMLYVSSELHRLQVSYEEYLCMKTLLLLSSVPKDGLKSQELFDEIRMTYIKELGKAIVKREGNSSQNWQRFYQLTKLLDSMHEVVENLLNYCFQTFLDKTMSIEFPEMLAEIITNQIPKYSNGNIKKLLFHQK
Description: In vitro functional glucocorticoid assays, metabolite versus parent. It is filed as cell-based. The method, then: Compound (I) undergoes highly efficient hepatic metabolism to yield the 17-β carboxylic acid (X) as the sole major metabolite in rat and human in vitro systems.
Pharmacological activity was assessed in a functional in vitro assay of glucocorticoid agonist activity which is generally predictive of anti-inflammatory or anti-allergic activity in vivo.
The functional assay was based on that described by K. P. Ray et al., Biochem J. (1997), 328, 707-715. A549 cells stably transfected with a reporter gene containing the NF-κB responsive elements from the ELAM gene promoter coupled to sPAP (secreted alkaline phosphatase) were treated with test compounds at appropriate doses for 1 hour at 37° C. The cells were then stimulated with tumour necrosis factor (TNF, 10 ng/ml) for 16 hours, at which time the amount of alkaline phosphatase produced is measured by a standard colourimetric assay. […]
In a variant of the above method, to monitor these functions, two reporter plasmids have been generated and introduced separately into A549 human lung epithelial cells by transfection. […] After incubation for 1 h 0.5 ng/ml TNFα (R&D Systems) was added and after a further 15 hours at 37° C., the levels of firefly and renilla luciferase were measured using the Packard Firelite kit following the manufacturers' directions. Dose response curves were constructed from which EC50 values were determined.

The target in series [5] is glucocorticoid receptor (GR) (Homo sapiens, UniProt P04150). The series can be described thus: Transactivation (GR) renilla luciferase reporter assay in A549 cells. Type of series: cell-based. To be noted: GRE renilla luciferase reporter, read-out: Transactivation (GR) ED50. The text has this: The glucocorticoid receptor (GR) can function in at least two distinct mechanisms, by upregulating gene expression through the direct binding of GR to specific sequences in gene promotors, and by downregulating gene expression that is being driven by other transcription factors (such as NFκB or AP-1) through their direct interaction with GR.
The first cell line contains the firefly luciferase reporter gene under the control of a synthetic promoter that specifically responds to activation of the transcription factor NFκB when stimulated with TNFα. The second cell line contains the renilla luciferase reporter gene under the control of a synthetic promotor that comprises 3 copies of the consensus glucocorticoid response element, and which responds to direct stimulation by glucocorticoids. Simultaneous measurement of transactivation and transrepression was conducted by mixing the two cell lines in a 1:1 ratio in 96 well plate (40,000 cells per well) and growing overnight at 37° C. Test compounds were dissolved in DMSO, and added to the cells at a final DMSO concentration of 0.7%. After incubation for 1 h 0.5 ng/ml TNFα (R&D Systems) was added and after a further 15 hours at 37° C., the levels of firefly and renilla luciferase were measured using the Packard Firelite kit following the manufacturers' directions. Dose response curves were constructed from which EC50 values were determined.

For series [6], the system named is human hepatocytes. Description: In vitro metabolism in human hepatocytes. It is filed as in vitro ADME. Particulars: 17-β carboxylic acid (X) the only significant metabolite.
Series [7] can be described thus: Pharmacokinetics after intravenous (IV) and oral dosing in rats. It is filed as in vivo, male Wistar Han rats. Particulars: rat.
For series [8], the system named is rat hepatocytes. The series can be described thus: In vitro metabolism in rat hepatocytes. Type of series: in vitro ADME. To be noted: 17-β carboxylic acid (X) the only significant metabolite.
For series [9], the system named is human bronchial epithelial cells. The series can be described thus: Cell transport and accumulation studies using human bronchial epithelial cells. Type of series: in vitro ADME.
For series [10], the system named is human lung tissue. The series can be described thus: In vitro human lung tissue affinity experiments. Type of series: in vitro ADME.
A short description of series [11]: Pharmacokinetics after intravenous administration in the anaesthetised pig. It is filed as in vivo. Particulars: IV mixture of the two compounds at 0.1 mg/kg. The text has this:
The clearance of these two glucocorticoids is similar is this experimental pig model.

For `CCC(=O)O[C@]1(C(=O)SCF)[C@H](C)C[C@H]2[C@@H]3C[C@H](F)C4=CC(=O)C=C[C@]4(C)[C@@]3(F)[C@@H](O)C[C@@]21C` [Fluticasone propionate, 6α,9α-Difluoro-17α-(1-oxopropoxy)-11β-hydroxy-16α-methyl-3-oxo-androsta-1,4-diene-17β-carbothioic acid S-fluoromethyl ester, reference compound], in [1], the “reduction of thymus weight” value was 78%. For the same molecule, in series [2], the “mean absorption time (MAT)” value worked out at 2.1 h and the “time taken for 90% of lung dose to be absorbed” value worked out at 11 h. Also, in series [3], the “time after dosing up to which quantifiable in plasma” value is reported as “up to 8 hours”.
On to `C[C@@H]1CC2C3C[C@H](F)C4=CC(=O)C=C[C@]4(C)[C@@]3(F)[C@@H](O)C[C@]2(C)[C@@]1(OC(=O)c1ccco1)C(=O)O` (stereo partly shown) [Metabolite (X)], for which, in series [4], the “fold less active than the parent compound” value is recorded as above 1000 fold. Also, the EC50 in series [5] was above 250 nM.
On to `C[C@@H]1CC2C3C[C@H](F)C4=CC(=O)C=C[C@]4(C)[C@@]3(F)[C@@H](O)C[C@]2(C)[C@@]1(OC(=O)c1ccco1)C(=O)SCF` (stereo partly drawn) [Compound of Formula (I), 6α,9α-Difluoro-17α-[(2-furanylcarbonyl)oxy]-11β-hydroxy-16α-methyl-3-oxo-androsta-1,4-diene-17β-carbothioic acid S-fluoromethyl ester], for which the “reduction of thymus weight” value in series [1] is given as 67%. In addition, the manner of metabolism entry in [6] is recorded as “metabolised in an identical manner to fluticasone propionate”. In [7] (male, Wistar Han, plasma, oral, 0.1 mg/kg, oral 0.1 mg/kg vs IV 0.1 mg/kg), this molecule returned a bioavailability of 0.9%. Also, the “plasma clearance (in words)” value in series [7] (in vivo) is “approaching hepatic blood flow”. Besides, in series [2], the “mean absorption time (MAT)” value amounted to 12 h and the “time taken for 90% of lung dose to be absorbed” value was 21 h. In [8], the manner of metabolism entry was “metabolised in an identical manner to fluticasone propionate”. For the same molecule, the “time after dosing up to which quantifiable in plasma” value in series [3] is on record as “up to 2 hours”. Also, the “systemic exposure compared with fluticasone propionate” value in series [3] (dry powder delivery to the lungs of anaesthetised pigs) is “markedly reduced systemic exposure; also recorded: significantly lower exposure”. In addition, in series [9], the “accumulation within the cell layer compared with fluticasone propionate” value is “greater accumulation” and the “flux across the cell layer compared with fluticasone propionate” value is given as “reduced flux”. For the same molecule, the “affinity for human lung tissue” value in series [10] is reported as “significantly higher affinity”. In [11], the “clearance compared with fluticasone propionate” value is “similar”.

Values taken from US7592329B2, “Crystalline complexes of fluticasone-2-furoate” (Glaxo Group Limited, priority 2003, dated 2009).
